The test system of data set [1] is HaCaT keratinocytes. The data set is described as follows: Chemotaxis assay, ThinCert inserts. The following applies: 0.1 and 1 µg/mL, 24 h, serum-free; n=12 (Figure S7B). Format: cell-based, human. The protocol: The effect of IM on cell chemotaxis was assessed with ThinCert cell culture inserts (8 μm, Greiner Bio-One, Kremsmünster, Austria). Cells were starved overnight in serum-free high-glucose DMEM and then seeded on inserts placed in a 24-well plate, at a density of 100,000 cells, in serum-free medium. Culture medium with appropriate concentrations of IM was then added to the wells of the plate and incubated for 24 h. The cells were stained with 8 μM Calcein-AM (BD Pharmingen), then migratory cells were detached with typsin-EDTA (Sigma-Aldrich, St. Louis, MO, USA). Detached cells were transferred to another plate and read with a fluorescence plate reader at an excitation wavelength of 485 nm and an emission wavelength of 520 nm.

Another data set deals with CTL, Th and NK cells. Kind of data set: Immune cell activation in PBMCs, flow cytometry. The data set is classed as cell-based, human. The following applies: 0.1 and 1.0 µg/mL, 48 h, 5 independent experiments. As to the method:
Immunological tests were conducted on human peripheral blood mononuclear cells, isolated from “buffy coats” using a ficoll density gradient (Histopaque, Sigma-Aldrich, St. Louis, MO, USA). Buffy coats for were obtained from blood of healthy anonymous donors of the Regional Center of Blood Donation and Blood Therapy in Gdansk, Poland. After washing in PBS, erythrocyte lysis, and cell counting (cell counter, Bio-Rad), the PBMCs were seeded onto a 24-well culture plate at a density of 10^6 cells/1 mL of RPMI 1640 (Penicillin/Streptomycin, 10% FBS) per well. After cell resting for 24 h, cells were stimulated with IM peptide (0.1 µg/mL and 1.0 µg/mL) for the next 48 h under appropriate conditions (37 °C, 5% CO2). The untreated cells were used as a negative control, whereas cells stimulated with LPS (1 µg/mL) and PHA (2.5 µg/mL) were a positive control. After incubation, the PBMCs were collected, washed with PBS, counted and prepared for flow cytometry analysis. 10^4 cells/100 µl were stained with monoclonal, fluorochrome-conjugated antibodies (anti-CD3, -CD4, -CD8, -CD16, -CD56, -CD25, -CD69, -CD71, -HLA-DR, -CD11c, -CD80, and -CD83) and incubated for 30 min in RT in the dark. Stained cells were analyzed using a flow cytometer (LSRFortessa, BD, USA). All data are presented as percentages due to the application of hospital diagnostic laboratory standards for immune cells analyses.

Data set [2] concerns primary cortical neural cultures. Kind of data set: Neural viability, CellTiterBlue assay. Format: cell-based, Wistar rat. Conditions: 1, 10, 100, 200 µM, 20 h, 37 °C; CellTiterBlue (Figure S6). As to the method:
Neural viability assessments. Primary cortical neural cultures were obtained from E18.5 Wistar rat embryos. For this purpose, the rat was euthanized in a CO2 chamber. The cortex tissue was immediately excised from the brain, moved to a HBSS medium (diluted 10 × and supplemented with a penicilin/streptomycin mixture), and washed precisely. Afterwards, the tissue was trypsinized for 10 min at 37 °C, and homogenized gently. […] Neural viability was quantitatively examined by CellTiterBlue® (CTB) assay (Promega, G8080) after 20-hour long incubation of the cells at 37 °C in the CO2. […] Fluorescence intensity of the CTB reagent is measured spectrofluorymetrically (560ex/590em) and is proportional to the number of viable cells. No insult sample referred as a 100% viability control and the data from the insulted cells was quantified and presented relatively as mean ± SD. The data was analyzed by a Mann-Whitney test with p-value < 0.05 values considered statistically significant. […]
Influence of Imunofan on neural viability. Influence of Imunofan on neural viability was assessed by exposing the cells to different peptide concentrations (1, 10, 100, 200 µM) for 20 h at 37 °C in a 5% CO2 chamber. […]

A further data set relates to skin cells. The data set is described as follows: Migration assay, ibidi culture inserts. The following applies: 0.1 and 1 µg/mL, 24 h. Format: cell-based, human. As to the method: (§1) The effect of IM on cell migration after 24 h was determined using ibidi culture inserts (ibidi, Cat. No. 81176, Gräfelfing, Germany). Cells were seeded in culture inserts, at a density of 30,000 per well, in appropriate medium supplemented with 10% FBS, which was changed to serum-free DMEM after 24 h. Mitomycin C (5 μg/mL) was added for 2 h to block cell proliferation. The medium was then changed, again, and cells were stimulated with an appropriate concentration of IM. After 24 h the cells were fixed with 3.7% paraformaldehyde, stained with 0.05% crystal violet, and the effect was measured with a phase-contrast fluorescent microscope (Zeiss, Oberkochen, Germany) and the surface areas were counted with Imaging Software NIS-Element Basic Research program.

Data set [3] relates to HaCaT keratinocytes. The data set is described as follows: Migration assay, ibidi culture inserts. Format: cell-based, human. Conditions: 0.1 and 1 µg/mL, 24 h, mitomycin C pre-treatment, serum-free; n=12 (Figure S7A). The protocol:
as §1

The next data set deals with ASCs. Kind of data set: Migration assay, ibidi culture inserts. The data set is classed as cell-based, human. Conditions: 0.1 µg/mL, 24 h; n=16. As to the method: as §1

Peptide text beside a SMILES is read from it.

On to `CC(C)[C@H](NC(=O)[C@H](CCCCN)NC(=O)[C@H](CC(=O)O)NC(=O)[C@@H](N)CCCNC(=N)N)C(=O)N[C@@H](Cc1ccc(O)cc1)C(=O)N[C@@H](CCCNC(=N)N)C(=O)O` [IM, H-Arg-Asp-Lys-Val-Tyr-Arg-OH] (H-RDKVYR-OH), for which, in the data set on HaCaT keratinocytes [1], the “inhibition of chemotaxis with respect to the control” value was 10–20%. For the same compound, the “immunogenic properties (activation of CTL, Th, NK)” value in the data set on CTL, Th and NK cells is reported as “no immunogenic properties”. Besides, the “toxicity to primary neural cells (viability)” value in data set [2] is “not toxic”. Moreover, in the data set with skin cells, the “stimulation of migration of skin cells” value is recorded as “does not stimulate migration”. The “inhibition of migration compared to the control” value with HaCaT keratinocytes [3] was 5–10%. For the same compound, the “promigratory effect compared to the control” value in the data set with ASCs is recorded as 10–15%.

The values are drawn from paper PMC7355430, “Imunofan—RDKVYR Peptide—Stimulates Skin Cell Proliferation and Promotes Tissue Repair” (Molecules, 2020).
